These results are taken from patent US20240308973A1, “PHOSPHODIESTERASE 3 (PDE3) INHIBITORS” (Zoetis Services LLC, priority 2023, published 2024).

Where “and” joins values, the source holds several entries; their conditions need not be identical. Identical values can stand only once.

Data set [1] concerns human iCell cardiomyocytes. The data set can be described thus: Human iPS cardiomyocyte contractility assay. As to conditions: human cardiomyocytes chronically paced (2 Hz). In kind it is cell-based. Here is the method:
Human iPS Cardiomyocyte Contractility Assay
Frozen human iCell® cardiomyocytes (FujiFilm® Cellular Dynamics Inc.) were thawed and plated in the center of each well of an Axion® Biosystems cytoview 24-well microelectrode array plate that was coated with human fibronectin in a 5-6 μL droplet at a density of 7-10×10^6 cells/mL. The cells were maintained in culture in a 37° C. humidified incubator at 5% CO2. After at least seven days in culture with maintenance media changes every 2-3 days, the cells were paced at 2 Hz for approximately 48 hours on the Axion® Biosystems Maestro Pro instrument using the field potential application in the Axis Navigator software before returning to the spontaneous beating for at least 10 minutes in the contractility application (i.e., Axion® Biosystems procedure for Positive Inotropy Protocol). […] Readings were taken at 3, 13, 23, 33, 43 and 53 minutes. […] Each compound was evaluated for the contractility response relative to the vehicle control (DMSO). […]
Myocardial contractility represents the innate ability of the heart muscle to contract. […] Cardiomyocyte contractibility of the compounds of the invention, as defined by changes in mean % delta beat amplitude, were determined to have a positive inotropic effect (i.e., a stronger cardiac muscle contraction force).

A short description of data set [2]: Dog plasma half-life after oral dose. Format: in vivo. As to conditions: oral, Beagle dogs, 0.3 mg/kg dose, plasma over 72 hours, read-out: t½ (hrs), Dog Plasma Compound Half-life (converted). As to the method: Lastly, plasma half-life was assessed for a number of compounds in dogs. Beagle dogs were given an oral dose (0.1 mg/kg) of the respective compound accounting for a dose amount of about 1 mg/dog. Pimopendan was administered at a 0.3 mg/kg dose.

For data set [3], the target named is dog PDE3A recombinant enzyme (Canis lupus familiaris, UniProt A0A8I3NYE0). The data set can be described thus: cPDE3A assay (fluorescent polarization). In kind it is biochemical. As to conditions: canine PDE3A, read-out: cPDE3 Inhibition (IC50). An outline of the steps: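 Recombinant dog PDE3A (5 pg/μL final) with FAM-cyclic-3′,5′-AMP substrate, inhibition read as fluorescence polarization change. Compounds tested in ≥7-point series from 10 μM, 0.1% final DMSO; IC50 calculated.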

The conditions of data set [4]: orally administered; cited from earlier work.
For another data set, the system named is NT-proBNP. The data set can be described thus: NT-proBNP circulating biomarker reduction. In kind it is in vivo, canine. As to conditions: labeled dose, 24 hours post dose. As to the method: NT-proBNP is a standard circulating biomarker of canine MMVD secreted by ventricular cardiomyocytes in response to stretching from volume or pressure overload. It is a well-defined diagnostic and prognostic biological indicator of myocardial wall stress and can be used as a biomarker for acute changes in left ventricular loading conditions. […] In one instance, Example #26 had reduced NT-proBNP levels by 49% and 62% at doses of 0.03 and 0.1 mg/kg, respectively, over a 12 hour period.

In a further data set the test system is PDE3. Conditions: JMC Vol. 35, 1992; cited from earlier work.
Another data set concerns calcium sensitization. Conditions: JMC Vol. 35, 1992; cited from earlier work.

Chain of dog PDE3A recombinant enzyme (A0A8I3NYE0 1-1135): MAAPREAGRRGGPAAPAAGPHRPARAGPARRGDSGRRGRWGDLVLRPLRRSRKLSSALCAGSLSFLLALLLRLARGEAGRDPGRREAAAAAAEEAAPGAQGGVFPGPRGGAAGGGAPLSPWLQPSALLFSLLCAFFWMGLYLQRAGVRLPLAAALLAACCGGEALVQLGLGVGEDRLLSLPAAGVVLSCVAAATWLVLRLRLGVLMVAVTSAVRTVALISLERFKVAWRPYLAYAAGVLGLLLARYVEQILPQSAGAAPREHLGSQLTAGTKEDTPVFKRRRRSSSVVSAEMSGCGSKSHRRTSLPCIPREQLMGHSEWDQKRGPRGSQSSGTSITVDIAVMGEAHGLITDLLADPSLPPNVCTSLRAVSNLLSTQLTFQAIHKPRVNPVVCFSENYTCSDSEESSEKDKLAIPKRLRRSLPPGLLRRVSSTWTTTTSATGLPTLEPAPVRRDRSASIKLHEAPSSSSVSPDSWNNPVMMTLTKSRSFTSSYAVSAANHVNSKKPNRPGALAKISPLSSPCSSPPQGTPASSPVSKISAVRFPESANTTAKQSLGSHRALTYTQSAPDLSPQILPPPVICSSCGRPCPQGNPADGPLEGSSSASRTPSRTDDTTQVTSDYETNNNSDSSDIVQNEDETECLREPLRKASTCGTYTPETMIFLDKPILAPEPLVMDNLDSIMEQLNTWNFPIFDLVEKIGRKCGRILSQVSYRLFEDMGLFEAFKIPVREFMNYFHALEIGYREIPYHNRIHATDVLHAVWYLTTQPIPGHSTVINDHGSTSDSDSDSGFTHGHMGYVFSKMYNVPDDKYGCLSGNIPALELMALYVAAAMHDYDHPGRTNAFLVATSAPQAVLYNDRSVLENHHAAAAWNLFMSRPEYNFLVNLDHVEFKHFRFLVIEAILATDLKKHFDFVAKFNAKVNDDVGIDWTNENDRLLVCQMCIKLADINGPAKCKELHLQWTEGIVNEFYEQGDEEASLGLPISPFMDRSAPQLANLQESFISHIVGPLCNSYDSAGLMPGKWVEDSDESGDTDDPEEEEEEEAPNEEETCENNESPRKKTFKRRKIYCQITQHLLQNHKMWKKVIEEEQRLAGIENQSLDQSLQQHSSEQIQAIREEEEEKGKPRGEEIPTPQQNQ

The term half-life denotes the time in which the quantity being followed falls by half. The term IC50 denotes the concentration that inhibits the measured activity by half. As for `COc1ccc(-c2nc3ccc(C4=NNC(=O)CC4C)cc3[nH]2)cc1` (racemic) [pimobendan, 6-(2-(4-methoxyphenyl)-1H-benzo[d]imidazol-6-yl)-5-methyl-4,5-dihydropyridazin-3 (2H)-one], the “contractility of cardiomyocytes (changes in mean % delta beat amplitude)” value in data set [1] is “dose dependently increases contractility”. Besides, the half-life in data set [2] was 0.4 h. In data set [3], the IC50 is ~1530 nM and 1530 nM. Also, in data set [4], the bioavailability is listed as 60-65%, the elimination half-life is about 96 min and the tmax result is reported as “about 2 hours”. For the same compound, the “decrease in NT-proBNP” value with NT-proBNP was determined as 41%. Moreover, the IC50 in the data set with PDE3 was 560 nM.

For `CC1(C)C(=O)Nc2ccc(C3=NNC(=O)CC3)cc21` [indolidan], in the data set with calcium sensitization, the calcium-sensitizing properties entry is reported as “lacked calcium-sensitizing properties”. For the same compound, in the data set on PDE3, the IC50 was 520 nM.
